Values quoted from earlier work in patent publication US8536091B2, “System for protection of plants from pathogens using alkamides” (priority 2008, dated 2013).

System: microbial plant pathogens, including bacteria and fungi
Conditions: in the absence of plants; relatively high levels

C/C=C/C=C\CC/C=C/C(=O)NCC(C)C [affinin, N-isobutyl-deca-2E,6Z,8E-trieneamide]
in vitro growth inhibition of microbial plant pathogens: inhibit the growth of some microbial plant pathogens
